Measurements taken from PubChem BioAssay (NCI).
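Results reflect a 48-hour exposure of cells in 96-well plates to compound at five concentrations. TGI marks complete inhibition of growth.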

Experiments:
Experiment in all cases: NCI anticancer screen, dose series, 48 h
786-0 renal = system: 786-0 renal
A498 renal = system: A498 renal
A549 NSCLC = system: A549 NSCLC
ACHN renal = system: ACHN renal
CAKI-1 renal = system: CAKI-1 renal
CCRF-CEM leukemia = system: CCRF-CEM leukemia
COLO 205 colon = system: COLO 205 colon
DLD-1 colon = system: DLD-1 colon
DMS 273 small cell lung = system: DMS 273 small cell lung
EKVX NSCLC = system: EKVX NSCLC
HCC-2998 colon = system: HCC-2998 colon
HCT-15 colon = system: HCT-15 colon
HOP-62 NSCLC = system: HOP-62 NSCLC
HOP-92 NSCLC = system: HOP-92 NSCLC
HT29 colon = system: HT29 colon
IGROV1 ovarian = system: IGROV1 ovarian
K-562 leukemia = system: K-562 leukemia
KM12 colon = system: KM12 colon
KM20L2 colon = system: KM20L2 colon
LOX IMVI melanoma = system: LOX IMVI melanoma
LXFL 529 NSCLC = system: LXFL 529 NSCLC
M14 melanoma = system: M14 melanoma
M19-MEL melanoma = system: M19-MEL melanoma
MALME-3M melanoma = system: MALME-3M melanoma
MOLT-4 leukemia = system: MOLT-4 leukemia
NCI-H226 lung = system: NCI-H226 lung
NCI-H23 lung = system: NCI-H23 lung
NCI-H522 lung = system: NCI-H522 lung
OVCAR-3 ovarian = system: OVCAR-3 ovarian
OVCAR-4 ovarian = system: OVCAR-4 ovarian
OVCAR-5 ovarian = system: OVCAR-5 ovarian
OVCAR-8 ovarian = system: OVCAR-8 ovarian
RPMI-8226 leukemia = system: RPMI-8226 leukemia
RXF 393 renal = system: RXF 393 renal
RXF-631 renal = system: RXF-631 renal
SF-268 CNS = system: SF-268 CNS
SF-295 CNS = system: SF-295 CNS
SF-539 CNS = system: SF-539 CNS
SK-MEL-2 melanoma = system: SK-MEL-2 melanoma
SK-MEL-28 melanoma = system: SK-MEL-28 melanoma
SK-MEL-5 melanoma = system: SK-MEL-5 melanoma
SK-OV-3 ovarian = system: SK-OV-3 ovarian
SNB-19 CNS = system: SNB-19 CNS
SNB-75 CNS = system: SNB-75 CNS
SNB-78 CNS = system: SNB-78 CNS
SR leukemia = system: SR leukemia
SW-620 colon = system: SW-620 colon
TK-10 renal = system: TK-10 renal
U251 CNS = system: U251 CNS
UACC-257 melanoma = system: UACC-257 melanoma
UACC-62 melanoma = system: UACC-62 melanoma
UO-31 renal = system: UO-31 renal
DMS 114 small cell lung = system: DMS 114 small cell lung
HCT-116 colon = system: HCT-116 colon
HL-60(TB) leukemia = system: HL-60(TB) leukemia
NCI-H460 lung = system: NCI-H460 lung
SN12C renal = system: SN12C renal
XF 498 CNS = system: XF 498 CNS
HOP-18 NSCLC = system: HOP-18 NSCLC

Measured: TGI

CC1C2C=C(O)C(=O)C(C2=O)C1c1ccccc1 (configuration not stated)
> 100 µM: 786-0 renal | A498 renal | A549 NSCLC | ACHN renal | CAKI-1 renal | CCRF-CEM leukemia | COLO 205 colon | DLD-1 colon | DMS 273 small cell lung | EKVX NSCLC | HCC-2998 colon | HCT-15 colon | HOP-62 NSCLC | HOP-92 NSCLC | HT29 colon | IGROV1 ovarian | K-562 leukemia | KM12 colon | KM20L2 colon | LOX IMVI melanoma | LXFL 529 NSCLC | M14 melanoma | M19-MEL melanoma | MALME-3M melanoma | MOLT-4 leukemia | NCI-H226 lung | NCI-H23 lung | NCI-H522 lung | OVCAR-3 ovarian | OVCAR-4 ovarian | OVCAR-5 ovarian | OVCAR-8 ovarian | RPMI-8226 leukemia | RXF 393 renal | RXF-631 renal | SF-268 CNS | SF-295 CNS | SF-539 CNS | SK-MEL-2 melanoma | SK-MEL-28 melanoma | SK-MEL-5 melanoma | SK-OV-3 ovarian | SNB-19 CNS | SNB-75 CNS | SNB-78 CNS | SR leukemia | SW-620 colon | TK-10 renal | U251 CNS | UACC-257 melanoma | UACC-62 melanoma | UO-31 renal

O=C(c1ccc(Cl)cc1)c1ccc(OCCCOc2ccc(C(=O)c3ccc(Cl)cc3)cc2Cl)c(Cl)c1
> 100 µM: 786-0 renal | A549 NSCLC | ACHN renal | CAKI-1 renal | CCRF-CEM leukemia | COLO 205 colon | DLD-1 colon | DMS 114 small cell lung | DMS 273 small cell lung | EKVX NSCLC | HCC-2998 colon | HCT-116 colon | HCT-15 colon | HL-60(TB) leukemia | HOP-62 NSCLC | HOP-92 NSCLC | HT29 colon | IGROV1 ovarian | K-562 leukemia | KM12 colon | KM20L2 colon | LOX IMVI melanoma | LXFL 529 NSCLC | M14 melanoma | M19-MEL melanoma | MALME-3M melanoma | MOLT-4 leukemia | NCI-H226 lung | NCI-H23 lung | NCI-H460 lung | NCI-H522 lung | OVCAR-3 ovarian | OVCAR-4 ovarian | OVCAR-5 ovarian | OVCAR-8 ovarian | RPMI-8226 leukemia | RXF 393 renal | RXF-631 renal | SF-295 CNS | SF-539 CNS | SK-MEL-2 melanoma | SK-MEL-28 melanoma | SK-MEL-5 melanoma | SK-OV-3 ovarian | SN12C renal | SNB-19 CNS | SNB-75 CNS | SNB-78 CNS | SR leukemia | SW-620 colon | TK-10 renal | U251 CNS | UACC-257 melanoma | UACC-62 melanoma | XF 498 CNS

Cc1cccc(C)c1N1C(=O)C(=O)C(c2nc3ccccc3s2)/C(=N\N)C1=O (configuration not stated)
> 100 µM: 786-0 renal | A498 renal | A549 NSCLC | ACHN renal | CAKI-1 renal | COLO 205 colon | DLD-1 colon | DMS 114 small cell lung | DMS 273 small cell lung | EKVX NSCLC | HCC-2998 colon | HCT-116 colon | HCT-15 colon | HL-60(TB) leukemia | HOP-18 NSCLC | HOP-62 NSCLC | HOP-92 NSCLC | HT29 colon | IGROV1 ovarian | K-562 leukemia | KM12 colon | KM20L2 colon | LOX IMVI melanoma | LXFL 529 NSCLC | M14 melanoma | M19-MEL melanoma | MALME-3M melanoma | MOLT-4 leukemia | NCI-H226 lung | NCI-H23 lung | NCI-H460 lung | NCI-H522 lung | OVCAR-3 ovarian | OVCAR-4 ovarian | OVCAR-5 ovarian | OVCAR-8 ovarian | RPMI-8226 leukemia | RXF-631 renal | SF-268 CNS | SF-295 CNS | SF-539 CNS | SK-MEL-2 melanoma | SK-MEL-28 melanoma | SK-MEL-5 melanoma | SK-OV-3 ovarian | SN12C renal | SNB-19 CNS | SNB-75 CNS | SNB-78 CNS | SW-620 colon | TK-10 renal | U251 CNS | UACC-257 melanoma | UACC-62 melanoma | UO-31 renal
